The text below walks through data of ChEMBL document CHEMBL4725402, “Discovery of thiapyran-pyrimidine derivatives as potential EGFR inhibitors” (Bioorg Med Chem, 2020).

Calls of active or inactive are those of the source. The calls are words filed in the database; no cut-off is given here.

The subject of data set [1] is NCI-H1975. The data set can be described thus: Antiproliferation activity against human NCI-H1975 cells harboring EGFR T790M/L858R mutation assessed as reduction in cell viability measured after 72 hrs by MTT assay. In kind it is functional, cell-based. As to conditions: NCI-H1975, 72 h.
Data set [2] can be described thus: Selectivity index, ratio of IC50 for human L02 cells to IC50 for human A549 cells assessed as reduction in cell viability measured after 72 hrs by MTT assay. In kind it is toxicity. As to conditions: L02 cells versus A549 cells, read-out: Ratio IC50.
Data set [3] deals with A549. The data set can be described thus: Antiproliferation activity against human A549 cells assessed as reduction in cell viability measured after 72 hrs by MTT assay. In kind it is functional, cell-based. The settings on record: A549, 72 h.
In data set [4] the target is Epidermal growth factor receptor (Homo sapiens, UniProt P00533). The data set can be described thus: Inhibition of wild type EGFR (unknown origin) using FAM-labelled peptide as substrate incubated for 10 mins in presence of ATP by Kinase Glo luminescence assay.
Data set [5] concerns the target Hepatocyte growth factor receptor (Homo sapiens) (UniProt P08581). The data set can be described thus: Inhibition of C-MET (unknown origin) at 1 uM relative to control.
For another data set, the species on record is Homo sapiens. Briefly: Inhibition of PI3K (unknown origin) at 1 uM relative to control.
For the next data set, the system named is MCF7. The data set can be described thus: Antiproliferation activity against human MCF7 cells assessed as reduction in cell viability measured after 72 hrs by MTT assay. Format: functional, cell-based. As to conditions: MCF7, 72 h.
In data set [6] the target is Epidermal growth factor receptor (Homo sapiens, UniProt P00533, T790M). The data set can be described thus: Inhibition of EGFR T790M mutant (unknown origin) using FAM-labelled peptide as substrate incubated for 10 mins fin presence of ATP by Kinase Glo luminescence assay.
The test system of the next data set is HeLa. The data set can be described thus: Antiproliferation activity against human HeLa cells assessed as reduction in cell viability measured after 72 hrs by MTT assay. In kind it is functional, cell-based.
For data set [7], the target named is Serine/threonine-protein kinase mTOR (Homo sapiens) (UniProt P42345). Briefly: Inhibition of mTOR (unknown origin) at 1 uM relative to control.
Data set [8] addresses Epidermal growth factor receptor (Homo sapiens, UniProt P00533, L858R/T790M). Briefly: Inhibition of EGFR T790M/L858R mutant (unknown origin) using FAM-labelled peptide as substrate incubated for 10 mins in presence of ATP by Kinase Glo luminescence assay.
Another data set concerns L02. Briefly: Cytotoxicity against human L02 cells assessed as reduction in cell viability measured after 72 hrs by MTT assay. In kind it is cell-based. As to conditions: L02, 72 h.
Data set [9] addresses Vascular endothelial growth factor receptor 2 (Homo sapiens) (UniProt P35968). The data set can be described thus: Inhibition of KDR (unknown origin) at 1 uM relative to control.
The test system of data set [10] is A549. Briefly: Cell cycle arrest in human A549 cells assessed as accumulation at S phase at 5 uM incubated for 48 hrs […] staining based flow cytometric analysis (reference value: 22.64 %). In kind it is functional.
The test system of data set [11] is NCI-H1975. The data set can be described thus: Induction of apoptosis in human H1975 cells assessed as necrotic cells at 5 uM incubated for 48 hrs Annexin V-FITC staining based flow cytometric analysis (reference value: 0.08 %). Format: functional.
The test system of data set [12] is NCI-H1975. The data set can be described thus: Induction of apoptosis in human H1975 cells assessed as late apoptotic cells at 5 uM incubated for 48 hrs Annexin V-FITC staining based flow cytometric analysis (reference value: 1.77 %). Format: functional.
Data set [13] relates to NCI-H1975. Briefly: Induction of apoptosis in human H1975 cells assessed as live cells at 5 uM incubated for 48 hrs Annexin V-FITC staining based flow cytometric analysis (reference value: 96.09 %). Format: functional.
Data set [14] relates to NCI-H1975. The data set can be described thus: Induction of apoptosis in human H1975 cells assessed as early apoptotic cells at 5 uM incubated for 48 hrs Annexin V-FITC staining based flow cytometric analysis (reference value: 2.06 %). Format: functional.
Data set [15] concerns A549. Briefly: Cell cycle arrest in human A549 cells assessed as accumulation at G2/M phase at 5 uM incubated for 48 hrs […] staining based flow cytometric analysis (reference value: 2.67 %). Format: functional.
Data set [16] relates to A549. The data set can be described thus: Cell cycle arrest in human A549 cells assessed as accumulation at G0/G1 phase at 5 uM incubated for 48 hrs […] staining based flow cytometric analysis (reference value: 74.69 %). Format: functional.
Data set [17] concerns NCI-H1975. The data set can be described thus: Induction of apoptosis in human H1975 cells assessed as live cells at 1 uM incubated for 48 hrs Annexin V-FITC staining based flow cytometric analysis (reference value: 96.09 %). Format: functional.
Data set [18] has as its system NCI-H1975. The data set can be described thus: Induction of apoptosis in human H1975 cells assessed as early apoptotic cells at 10 uM incubated for 48 hrs Annexin V-FITC staining based flow cytometric analysis (reference value: 2.06 %). In kind it is functional.
Data set [19] has as its system NCI-H1975. The data set can be described thus: Induction of morphological changes in human H1975 cells assessed as chromatin shrinkage and apoptotic body formation at 0.01 to 0.10 uM incubated for 6 hrs by AO staining-based fluorescent microscopic analysis. Format: functional, cell-based. The settings on record: dose microM 0.01-0.10, time 6.0 hrs.
In data set [20] the test system is NCI-H1975. Briefly: Induction of morphological changes in human H1975 cells assessed as chromatin agglutination in nucleus at 0.01 to 0.10 uM incubated for 6 hrs by Hoechst33258 staining-based fluorescent microscopic analysis. As to conditions: dose microM 0.01-0.10, time 6.0 hrs. In kind it is functional, cell-based.
The subject of data set [21] is NCI-H1975. Briefly: Induction of apoptosis in human H1975 cells assessed as late apoptotic cells at 10 uM incubated for 48 hrs Annexin V-FITC staining based flow cytometric analysis (reference value: 1.77 %). In kind it is functional.
Data set [22] concerns A549. Briefly: Cell cycle arrest in human A549 cells assessed as accumulation at S phase at 1 uM incubated for 48 hrs […] staining based flow cytometric analysis (reference value: 22.64 %). Format: functional.
The test system of data set [23] is A549. Briefly: Cell cycle arrest in human A549 cells assessed as accumulation at G2/M phase at 1 to 10 uM incubated for 48 hrs […] staining based flow cytometric analysis. The settings on record: dose microM 1-10, time […]. In kind it is functional.
Data set [24] has as its system NCI-H1975. The data set can be described thus: Induction of apoptosis in human H1975 cells assessed as live cells at 10 uM incubated for 48 hrs Annexin V-FITC staining based flow cytometric analysis (reference value: 96.09 %). In kind it is functional.
In data set [25] the test system is A549. The data set can be described thus: Cell cycle arrest in human A549 cells assessed as accumulation at G0/G1 phase at 10 uM incubated for 48 hrs […] staining based flow cytometric analysis (reference value: 74.69 %). Format: functional.
For data set [26], the system named is A549. The data set can be described thus: Cell cycle arrest in human A549 cells assessed as accumulation at S phase at 10 uM incubated for 48 hrs […] staining based flow cytometric analysis (reference value: 22.64 %). Format: functional.
For data set [27], the system named is NCI-H1975. Briefly: Induction of apoptosis in human H1975 cells assessed as late apoptotic cells at 1 to 10 uM incubated for 48 hrs Annexin V-FITC staining based flow cytometric analysis. Format: functional, cell-based. As to conditions: dose microM 1-10, time […].
Data set [28] relates to NCI-H1975. Briefly: Induction of apoptosis in human H1975 cells assessed as necrotic cells at 1 uM incubated for 48 hrs Annexin V-FITC staining based flow cytometric analysis (reference value: 0.08 %). Format: functional.
Data set [29] concerns A549. Briefly: Cell cycle arrest in human A549 cells assessed as accumulation at G2/M phase at 10 uM incubated for 48 hrs […] staining based flow cytometric analysis (reference value: 2.67 %). Format: functional.
The subject of data set [30] is A549. Briefly: Cell cycle arrest in human A549 cells assessed as accumulation at G0/G1 phase at 1 uM incubated for 48 hrs […] staining based flow cytometric analysis (reference value: 74.69 %). In kind it is functional.
Data set [31] relates to NCI-H1975. Briefly: Induction of apoptosis in human H1975 cells assessed as late apoptotic cells at 1 uM incubated for 48 hrs Annexin V-FITC staining based flow cytometric analysis (reference value: 1.77 %). In kind it is functional.
In data set [32] the test system is NCI-H1975. The data set can be described thus: Induction of apoptosis in human H1975 cells assessed as necrotic cells at 10 uM incubated for 48 hrs Annexin V-FITC staining based flow cytometric analysis (reference value: 0.08 %). Format: functional.
Data set [33] has as its system NCI-H1975. Briefly: Induction of apoptosis in human H1975 cells assessed as early apoptotic cells at 1 uM incubated for 48 hrs Annexin V-FITC staining based flow cytometric analysis (reference value: 2.06 %). In kind it is functional.
For data set [34], the system named is A549. The data set can be described thus: Cell cycle arrest in human A549 cells assessed as accumulation at G2/M phase at 1 uM incubated for 48 hrs […] staining based flow cytometric analysis (reference value: 2.67 %). In kind it is functional.
For data set [35], the system named is NCI-H1975. Briefly: Induction of morphological changes in human H1975 cells assessed as dense nuclei staining at 0.01 to 0.10 uM incubated for 6 hrs by Hoechst 33258 staining-based fluorescent microscopic analysis. Format: functional, cell-based. As to conditions: dose microM 0.01-0.10, time 6.0 hrs.

Chain of Epidermal growth factor receptor (Homo sapiens, UniProt P00533) (P00533 whole entry): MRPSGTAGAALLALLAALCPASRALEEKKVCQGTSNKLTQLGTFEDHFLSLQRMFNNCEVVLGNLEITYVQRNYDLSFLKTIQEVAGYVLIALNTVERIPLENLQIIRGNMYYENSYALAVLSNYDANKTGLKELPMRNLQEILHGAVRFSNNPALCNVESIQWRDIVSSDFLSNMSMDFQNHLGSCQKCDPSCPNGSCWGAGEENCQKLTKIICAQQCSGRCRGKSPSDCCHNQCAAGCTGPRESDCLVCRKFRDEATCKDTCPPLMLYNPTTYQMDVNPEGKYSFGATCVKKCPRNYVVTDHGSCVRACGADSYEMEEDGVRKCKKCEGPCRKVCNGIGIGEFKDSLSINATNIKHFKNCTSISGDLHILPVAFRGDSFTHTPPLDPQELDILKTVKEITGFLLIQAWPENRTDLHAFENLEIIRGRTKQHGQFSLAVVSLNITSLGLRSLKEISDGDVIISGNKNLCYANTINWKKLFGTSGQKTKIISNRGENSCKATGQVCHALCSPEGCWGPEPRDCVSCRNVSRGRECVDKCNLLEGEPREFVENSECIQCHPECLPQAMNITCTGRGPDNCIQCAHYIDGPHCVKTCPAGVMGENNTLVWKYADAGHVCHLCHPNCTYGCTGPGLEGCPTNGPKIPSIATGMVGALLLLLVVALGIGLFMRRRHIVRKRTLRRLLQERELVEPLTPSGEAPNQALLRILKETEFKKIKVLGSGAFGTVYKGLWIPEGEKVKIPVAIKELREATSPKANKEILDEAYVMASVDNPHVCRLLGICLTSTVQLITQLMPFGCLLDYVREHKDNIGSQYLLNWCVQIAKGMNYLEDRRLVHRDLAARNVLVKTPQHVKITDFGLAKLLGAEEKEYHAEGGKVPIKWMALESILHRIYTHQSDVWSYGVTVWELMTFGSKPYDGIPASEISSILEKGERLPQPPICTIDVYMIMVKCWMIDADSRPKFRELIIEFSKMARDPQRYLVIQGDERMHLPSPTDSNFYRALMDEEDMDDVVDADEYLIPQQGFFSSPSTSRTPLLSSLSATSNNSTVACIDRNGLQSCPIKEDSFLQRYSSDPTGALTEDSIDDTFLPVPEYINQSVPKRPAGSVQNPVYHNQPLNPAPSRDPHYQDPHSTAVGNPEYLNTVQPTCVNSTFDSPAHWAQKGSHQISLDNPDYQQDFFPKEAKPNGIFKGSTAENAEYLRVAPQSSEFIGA
Chain of Epidermal growth factor receptor (Homo sapiens, UniProt P00533, T790M) (P00533 25-1210 T790M limits assumed): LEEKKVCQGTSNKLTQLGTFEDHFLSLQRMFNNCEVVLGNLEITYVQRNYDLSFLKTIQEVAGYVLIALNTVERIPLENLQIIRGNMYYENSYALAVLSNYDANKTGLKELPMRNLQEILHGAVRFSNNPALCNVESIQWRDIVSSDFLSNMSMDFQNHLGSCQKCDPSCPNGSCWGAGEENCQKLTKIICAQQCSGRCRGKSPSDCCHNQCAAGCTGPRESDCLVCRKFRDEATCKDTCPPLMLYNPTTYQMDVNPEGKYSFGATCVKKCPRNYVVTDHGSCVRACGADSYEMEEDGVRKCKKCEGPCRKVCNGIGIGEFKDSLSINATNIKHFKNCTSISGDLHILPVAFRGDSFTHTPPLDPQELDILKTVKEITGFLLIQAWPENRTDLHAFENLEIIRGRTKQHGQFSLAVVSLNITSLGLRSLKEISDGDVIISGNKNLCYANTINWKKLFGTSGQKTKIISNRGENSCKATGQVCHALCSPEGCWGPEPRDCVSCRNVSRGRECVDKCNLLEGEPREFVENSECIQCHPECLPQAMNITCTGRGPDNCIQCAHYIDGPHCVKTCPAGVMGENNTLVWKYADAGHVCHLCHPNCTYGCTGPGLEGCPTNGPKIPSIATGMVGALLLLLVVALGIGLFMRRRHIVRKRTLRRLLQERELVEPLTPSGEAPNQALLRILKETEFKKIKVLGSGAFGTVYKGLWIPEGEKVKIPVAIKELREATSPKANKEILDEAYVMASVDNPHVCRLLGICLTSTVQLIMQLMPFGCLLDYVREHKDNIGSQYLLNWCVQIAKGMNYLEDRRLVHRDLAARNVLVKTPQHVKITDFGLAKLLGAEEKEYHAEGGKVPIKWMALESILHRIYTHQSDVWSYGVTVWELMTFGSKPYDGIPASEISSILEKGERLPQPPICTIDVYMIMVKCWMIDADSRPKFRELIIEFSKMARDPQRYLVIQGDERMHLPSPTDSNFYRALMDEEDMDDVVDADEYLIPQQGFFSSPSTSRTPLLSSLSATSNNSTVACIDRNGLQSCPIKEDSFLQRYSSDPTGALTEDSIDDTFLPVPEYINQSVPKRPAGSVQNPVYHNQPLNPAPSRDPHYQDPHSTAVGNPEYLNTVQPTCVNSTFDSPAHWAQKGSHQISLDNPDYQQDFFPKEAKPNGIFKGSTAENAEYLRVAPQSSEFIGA
Chain of Epidermal growth factor receptor (Homo sapiens, UniProt P00533, L858R/T790M) (P00533 25-1210 T790M/L858R limits assumed): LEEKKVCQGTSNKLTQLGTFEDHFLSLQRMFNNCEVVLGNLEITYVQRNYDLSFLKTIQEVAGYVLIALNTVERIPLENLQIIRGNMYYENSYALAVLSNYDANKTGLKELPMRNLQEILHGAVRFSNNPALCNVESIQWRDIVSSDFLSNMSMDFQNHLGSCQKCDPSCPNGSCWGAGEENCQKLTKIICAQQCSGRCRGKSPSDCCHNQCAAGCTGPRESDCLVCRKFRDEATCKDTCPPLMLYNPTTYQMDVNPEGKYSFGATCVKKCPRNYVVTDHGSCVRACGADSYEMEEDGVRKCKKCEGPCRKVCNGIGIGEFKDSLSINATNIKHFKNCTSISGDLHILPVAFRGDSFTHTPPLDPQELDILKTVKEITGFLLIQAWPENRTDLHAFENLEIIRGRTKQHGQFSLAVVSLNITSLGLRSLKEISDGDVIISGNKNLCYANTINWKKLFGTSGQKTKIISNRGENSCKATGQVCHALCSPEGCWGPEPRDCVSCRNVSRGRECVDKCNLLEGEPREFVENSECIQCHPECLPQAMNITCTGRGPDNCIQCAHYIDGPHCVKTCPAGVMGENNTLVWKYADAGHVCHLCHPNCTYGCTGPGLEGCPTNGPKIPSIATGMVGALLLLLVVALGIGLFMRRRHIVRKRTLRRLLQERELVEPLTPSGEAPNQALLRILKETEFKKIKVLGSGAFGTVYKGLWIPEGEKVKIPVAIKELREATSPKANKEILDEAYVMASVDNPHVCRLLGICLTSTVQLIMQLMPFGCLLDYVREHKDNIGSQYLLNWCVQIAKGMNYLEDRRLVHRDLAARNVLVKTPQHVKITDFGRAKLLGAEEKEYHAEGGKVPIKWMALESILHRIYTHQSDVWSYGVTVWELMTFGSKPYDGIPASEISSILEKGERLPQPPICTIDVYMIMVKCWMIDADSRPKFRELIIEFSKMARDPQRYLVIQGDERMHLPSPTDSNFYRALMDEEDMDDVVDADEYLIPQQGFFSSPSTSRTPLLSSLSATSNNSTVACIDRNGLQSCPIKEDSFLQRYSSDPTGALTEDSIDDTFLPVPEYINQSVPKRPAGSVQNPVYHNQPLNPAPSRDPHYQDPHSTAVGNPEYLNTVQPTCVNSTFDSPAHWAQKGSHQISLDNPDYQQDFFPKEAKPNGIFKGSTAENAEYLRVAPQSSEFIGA
Chain of Vascular endothelial growth factor receptor 2 (Homo sapiens) (P35968 whole entry): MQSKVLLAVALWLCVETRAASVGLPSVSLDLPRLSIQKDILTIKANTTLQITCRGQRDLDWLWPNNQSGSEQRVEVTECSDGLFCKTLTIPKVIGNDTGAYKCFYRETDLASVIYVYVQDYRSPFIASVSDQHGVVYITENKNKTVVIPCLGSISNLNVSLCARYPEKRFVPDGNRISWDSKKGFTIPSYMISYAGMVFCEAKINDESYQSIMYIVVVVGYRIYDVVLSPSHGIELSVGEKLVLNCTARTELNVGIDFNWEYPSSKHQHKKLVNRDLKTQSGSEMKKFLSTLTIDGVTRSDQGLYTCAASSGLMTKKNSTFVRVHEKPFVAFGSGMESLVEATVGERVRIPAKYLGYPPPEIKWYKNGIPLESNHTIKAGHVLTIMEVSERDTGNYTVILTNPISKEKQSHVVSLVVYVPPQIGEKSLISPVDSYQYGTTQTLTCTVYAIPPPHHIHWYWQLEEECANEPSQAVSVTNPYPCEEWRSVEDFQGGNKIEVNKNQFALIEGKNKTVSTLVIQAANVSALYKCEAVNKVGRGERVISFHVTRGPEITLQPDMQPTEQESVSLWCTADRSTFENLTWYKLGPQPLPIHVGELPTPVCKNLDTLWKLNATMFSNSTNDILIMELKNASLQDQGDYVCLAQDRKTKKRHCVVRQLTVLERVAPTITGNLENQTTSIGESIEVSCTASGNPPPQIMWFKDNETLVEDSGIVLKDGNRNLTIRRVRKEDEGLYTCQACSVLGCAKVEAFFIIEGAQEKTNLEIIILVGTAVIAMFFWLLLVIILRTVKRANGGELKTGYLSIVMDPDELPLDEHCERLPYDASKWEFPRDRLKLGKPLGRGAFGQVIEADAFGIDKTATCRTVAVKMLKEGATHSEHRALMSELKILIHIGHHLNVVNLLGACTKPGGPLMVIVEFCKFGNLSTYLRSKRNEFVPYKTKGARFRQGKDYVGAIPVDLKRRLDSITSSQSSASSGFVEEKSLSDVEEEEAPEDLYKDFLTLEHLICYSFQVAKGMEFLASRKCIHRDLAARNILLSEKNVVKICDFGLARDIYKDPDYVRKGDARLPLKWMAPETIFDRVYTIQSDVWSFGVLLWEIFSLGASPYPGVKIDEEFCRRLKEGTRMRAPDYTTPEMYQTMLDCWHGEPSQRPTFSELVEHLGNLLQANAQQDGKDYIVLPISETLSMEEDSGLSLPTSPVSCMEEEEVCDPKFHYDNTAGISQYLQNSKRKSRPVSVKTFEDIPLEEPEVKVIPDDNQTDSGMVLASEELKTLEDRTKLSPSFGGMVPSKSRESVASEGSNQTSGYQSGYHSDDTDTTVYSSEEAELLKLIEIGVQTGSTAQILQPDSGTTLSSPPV

Regarding `CCC/C=C/C(=O)Nc1cccc(Oc2nc(Nc3cccc(C#N)c3)nc3c2CSCC3)c1`, the 50% inhibitory concentration (IC50) with NCI-H1975 [1] is 10.8 µM; in the data set with A549 [3], 5.79 µM; in data set [4], > 1 µM; in the data set on MCF7, 15.3 µM; in [6] it was > 1 µM; in the data set with HeLa, 7.22 µM. For the same compound, the IC50 in [8] is > 1 µM; in the data set on L02, > 50 µM. In addition, in data set [2], the selectivity ratio at 72 h was > 8.64. The inhibition was determined as 3.6% in [5], 62.2% in the data set listed under Homo sapiens and 10% in data set [7].

Regarding `C=CC(=O)Nc1cccc(Oc2nc(Nc3cccc(C#N)c3)nc3c2CSCC3)c1`, the IC50 was 4.59 µM with NCI-H1975 [1]; 6.86 µM in the data set on A549 [3]; > 1 µM in data set [4]; 21.7 µM in the data set on MCF7; > 1 µM in [6]; 34.9 µM with HeLa. Moreover, the 50% inhibitory concentration (IC50) in data set [8] is > 1 µM; in the data set with L02 it was > 50 µM. For the same compound, the selectivity ratio at 72 h in [2] is > 7.29. Besides, the inhibition was 2.4% in data set [5], 44.3% in the data set filed under Homo sapiens and -0.9% in [9].

In the case of `C=CC(=O)Nc1cccc(Oc2nc(Nc3ccc(N4CCN(C)CC4)cc3)nc3ccsc23)c1` [OLMUTINIB], the Activity came out at 14.65% in the data set with A549 [10]; 0.34% with NCI-H1975 [11]; 10.76% in the data set on NCI-H1975 [12]; 84.27% in the data set with NCI-H1975 [13]; 4.63% in the data set with NCI-H1975 [14]; 8.72% in the data set with A549 [15]. For the same compound, in the data set with A549 [16], the Activity was 76.63%. For the same compound, in data set [5], the inhibition turned out to be 7.1%. In addition, the inhibition entry (in the data set filed under Homo sapiens; in data set [7]; in data set [9]) was “inactive” in each case.

In the case of `C=CC(=O)Nc1cccc(Oc2nc(Nc3ccc(OC)cc3)nc3c2CSCC3)c1`, the Activity came out at 87.16% in the data set on NCI-H1975 [17]; 5.2% in the data set with NCI-H1975 [18]; 14.44% in the data set with A549 [10]; 0.6% in the data set on NCI-H1975 [11]; 15.46% in the data set with NCI-H1975 [21]; 20.22% in the data set with A549 [22]. In addition, the Activity entry was “Dose-dependent effect” in the data set with A549 [23]; 78.76% with NCI-H1975 [24]; 62.57% with A549 [25]; 10.7% in the data set with NCI-H1975 [12]; 14.2% in the data set with A549 [26]; “Dose-dependent effect” in the data set with NCI-H1975 [27]. The Activity amounted to 0.85% with NCI-H1975 [28]; 23.23% in the data set on A549 [29]; 71.16% in the data set on A549 [30]; 81.2% in the data set on NCI-H1975 [13]; 8.23% in the data set on NCI-H1975 [31]; 0.58% with NCI-H1975 [32]. Further, the Activity in the data set with NCI-H1975 [14] is 7.5%; with A549 [15], 10.69%; in the data set on NCI-H1975 [33], 3.76%; in the data set with A549 [34], 8.62%; with A549 [16], 74.87%. The half-inhibitory concentration (IC50) in the data set on NCI-H1975 [1] was 2.19 µM; in the data set with A549 [3], 4.22 µM; in [4] it was > 1 µM; with MCF7, 11.7 µM; in data set [6] it was 0.542 µM; with HeLa, 20.9 µM. For the same compound, the values for the 50% inhibitory concentration (IC50) (in [8]; in the data set with L02) were 0.132 µM and > 50 µM, respectively. For the same compound, the selectivity ratio at 72 h in data set [2] was > 11.8. Besides, the result with NCI-H1975 [19], in the data set on NCI-H1975 [20] and in the data set on NCI-H1975 [35] was Active. In addition, the inhibition in data set [5] is 0.5%; in the data set filed under Homo sapiens it was 48.1%; in [7] it was -1.2%; in data set [9], 3.9%.
